In the oligonucleotide strings, read from the 5' end, every base follows the letter of its sugar. An asterisk marks phosphorothioate; unmarked linkages are phosphodiester. Other units and linkages are bracketed, terminal groups are in braces. A string of capitals states the bases alone. e = 2'-O-(2-methoxyethyl) (MOE); [5mC] = 5-methylcytosine
Tested on: IL-6 mRNA
Experiment: IL-6 mRNA in LPS-activated primary murine macrophages
Format: cell-based, mouse
Settings: average of 3 treatments
In short: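 Thioglycollate-elicited peritoneal macrophages from female C57Bl/6 mice, transfected with miRNA-targeting oligomeric compounds via FuGENE 6 (1 μL per 100 nM compound) for ~24–28 h at 37 °C, optionally primed 4 h with 100 ng/mL IFN-gamma, then stimulated 24 h with 100 ng/mL LPS. IL-6 mRNA quantified by real-time PCR.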

Substance	IL-6 mRNA expression, % UTC (75 nM, +IFN)	IL-6 mRNA expression, % UTC (75 nM, −IFN)	IL-6 mRNA expression, % UTC (150 nM, +IFN)	IL-6 mRNA expression, % UTC (150 nM, −IFN)	IL-6 mRNA expression, % UTC (300 nM, +IFN)	IL-6 mRNA expression, % UTC (300 nM, −IFN)	IL-6 mRNA expression, % UTC (600 nM, +IFN)	IL-6 mRNA expression, % UTC (600 nM, −IFN)
327941 (antisense eA*eA*e[5mC]*e[5mC]*e[5mC]*eA*e[5mC]*e[5mC]*eG*eA*e[5mC]*eA*eG*e[5mC]*eA*eA*eT*eG*eA*eA*eT*eG*eT*eT) [compound 327941]	181 % UTC	293 % UTC	197 % UTC	325 % UTC	197 % UTC	271 % UTC	301 % UTC	501 % UTC
327921 (antisense e[5mC]*eT*eT*e[5mC]*e[5mC]*eA*eG*eT*e[5mC]*eG*eG*eG*eG*eA*eT*eG*eT*eT*eT*eA*e[5mC]*eA) [compound 327921]	122 % UTC	223 % UTC	144 % UTC	294 % UTC	287 % UTC	522 % UTC	313 % UTC	632 % UTC

Reference: patent US8178506B2, “Oligomeric compounds and compositions for use in modulation of small non-coding RNAs” (Regulus Therapeutics Inc., priority 2003, dated 2012)
